Data: patent US5202339A, “Hydantoin derivatives” (Mochida Pharmaceutical Co., Ltd., priority 1987, dated 1993)
Entries after “also recorded” stand apart in the source; their conditions may differ.

Assays:
[1] = biological target: T1, bovine lens aldose reductase (Bos taurus, UniProt P16116); assay: inhibitory activity on bovine lens aldose reductase (Experimental Example 2); format: biochemical; conditions: for IC50: pH 6.2, 10 mM DL-glyceraldehyde, 0.16 mM NADPH
T1 construct: bovine lens aldose reductase preparation was used; from tissue; host or cells: bovine lens
Protocol: (§1) Assays were performed in 0.1M phosphate buffer (pH 6.2) containing 0.4M ammonium sulfate, 10 mM DL-glyceraldehyde, 0.16 mM nicotinamide adenine dinucleotide phosphate, reduced form (NADPH) and aldose reductase (0.010-0.016 units) in a total volume of 1.0 ml. To this mixture was added 10 μl of the solution of each hydantoin derivative to be tested, and the decrease in absorbance at 340 nm was measured with a spectrophotometer.

ICR strain mice = assay: acute toxicity in mice (Experimental Example 3); format: in vivo; conditions: 1 g/kg, oral, groups of 5 ICR mice
From the text: Hydantoin derivatives of the present invention were examined for acute toxicity.

[2] = system: Streptozotocin-Diabetic Rats; assay: Hypoglycemic Effects in Streptozotocin-Diabetic Rats (Experimental Example 4); format: in vivo, rat (male Wistar); conditions: STZ-diabetic rats, 100 mg/kg oral; for inhibition in vivo at 100 mg/kg: Rattus norvegicus, 6 hrs after administration, read-out: Lowering rate of serum glucose (%)
Protocol: (§2) Diabetic rats were produced according to the method of Junod et al. (A. Junod et al., J. Clin. Invest., 48, 2129 (1969)). Briefly, male Wistar rats were given 26.5 mg/kg of streptozotocin (STZ) intravenously. Four days later, the rats with serum glucose levels of between 400 and 500 mg/dl were used. After being fasted for 4 hrs, groups of 5 diabetic rats were orally administered with the compounds of the present invention or gliclazide in a dose of 100 mg/kg. Blood sample were collected from the orbital vein before and 6 hrs after the administration. Serum glucose levels were determined by the enzymatic method with an autoanalyzer (Cobas Fara®, Roche).

[3] = biological target: T2, rat lens aldose reductase (Rattus norvegicus, UniProt P07943); assay: inhibitory activity on rat lens aldose reductase (Experimental Example 1); format: biochemical; conditions: for IC50: pH 6.2, 10 mM DL-glyceraldehyde, 0.16 mM NADPH; for potency relative to reference compound A: ratio in words
T2 construct: rat lens aldose reductase; from tissue; host or cells: rat lens
Protocol: as §1, with “The inhibitory activities of hydantoin derivatives on rat lens aldose reductase were measured according to the procedure of Inagaki et al. (K. Inagaki et al., Arch. Biochem. Biophys., 216, 337 (1982)) with slight modifications. Assays” for “Assays”
The concentrations of typical hydantoin derivatives of the present invention required to produce 50% inhibition are shown in table 1.

[4] = system: Streptozotocin-Diabetic Rats; assay: Ketone Body Lowering Effects in Streptozotocin-Diabetic Rats (Experimental Example 5); format: in vivo, rat (male Wistar); conditions: STZ-diabetic rats, oral for 2 weeks
Protocol: as §2
(§3) Diabetic rats were produced according to the method described previously. Groups of 5 diabetic rats were orally administered with compound 38 or 47 of the present invention for 2 weeks. The rats were deprived of food 4 hrs before the last administration, and 6 hrs after the last administration, blood samples were collected from the orbital vein. Serum total ketone body (KB) levels were determined by the enzymatic method with an autoanalyzer (Cobas Fara®, Roche). In this experiment, serum total ketone body levels in streptozotocin-diabetic rats increased by 92 % of normal rats in the mean value.

Normal Rats = assay: Hypoglycemic Effects in Normal Rats (Experimental Example 6); format: in vivo, rat (male Wistar); conditions: normal animals
Protocol: Groups of 5 male Wistar rats, after being fasted for 4 hrs, where orally administered with compound 38 or 47 of the present invention or gliclazide. Blood samples were collected from the orbital vein before, 1 hr and 6 hrs after the administration. Serum glucose levels were determined by the enzymatic method with an autoanalyzer (Cobas Fara®, Roche).

[5] = system: Streptozotocin-Diabetic Rats; assay: Hypolipidemic Effects in Streptozotocin-Diabetic Rats (Experimental Example 7); format: in vivo, rat (male Wistar); conditions: STZ-diabetic rats, 100 mg/kg oral for 2 weeks
Protocol: as §2
as §3, with “invention at a dose of 100 mg/kg” for “invention”, “triglyceride (TG), non-esterified fatty acid (NEFA) and cholesterol (CHOL)” for “total ketone body (KB)”, “experiment, each parameters of” for “experiment,”, “lipids” for “total ketone body levels”, “40” for “92”

SMILES	IC50 [1] [nM]	acute toxicity: change observed over the one-week period after administration (ICR strain mice)	inhibition in vivo at 100 mg/kg [2] [%]	IC50 [3] [nM]	further results
O=C1CN(S(=O)(=O)c2cc3cc(Cl)ccc3o2)C(=O)N1 [Compound 20, 1-(5-chlorobenzo[b]furan-2-ylsulfonyl)hydantoin]	360	no change was observed	12.8		
O=C1CN(S(=O)(=O)c2cc3c(Cl)c(Cl)ccc3o2)C(=O)N1 [Compound 44, 1-(4,5-dichlorobenzo[b]furan-2-yl-sulfonyl)hydantoin]	61	no change was observed	21.1		
O=C1CN(S(=O)(=O)c2cc3cc(Cl)c(Cl)cc3o2)C(=O)N1 [Compound 45, 1-(5,6-dichlorobenzo[b]furan-2-yl-sulfonyl)hydantoin]	83	no change was observed	28.5		
COc1ccc2cc(S(=O)(=O)N3CC(=O)NC3=O)ccc2c1[N+](=O)[O-] [Compound 15, 1-(6-methoxy-5-nitronaphthalen-2-yl-sulfonyl)hydantoin]	230			38	potency relative to reference compound A [3]: ten times or more potent; inhibitory activity against aldose reductase compared with reference compound B ([1]; in words): stronger inhibitory activities against aldose reductase
O=C1CN(S(=O)(=O)c2oc3ccccc3c2Br)C(=O)N1 [Compound 38, 1-(3-bromobenzo[b]furan-2-ylsulfonyl)hydantoin]	160	no change was observed	33.5		lowering of serum total ketone body levels (in words) [4]: lowering activity of serum total ketone body levels; influence on serum glucose level of normal rats (in words) (Normal Rats): lesser influences on serum glucose level of normal rats; lowering of serum lipid levels (in words) [5]: lowering activities of serum triglyceride, non esterified fatty acid and cholesterol levels
Cc1ccc(S(=O)(=O)NC(=O)NN2CC3CCCC3C2)cc1 (centres unmarked) [Compound C, gliclazide, reference compound]			11		hypoglycemic activity in diabetic animals (in words) [2]: less potent hypoglycemic activity than all compounds of the present invention; influence on serum glucose level of normal rats (in words) (Normal Rats): significantly lowered serum glucose level of normal rats; also recorded: remarkable hypoglycemic activity in normal animals
O=C1CN(S(=O)(=O)c2cc3ccccc3cc2Br)C(=O)N1 [Compound 9, 1-(3-bromonaphthalen-2-ylsulfonyl)hydantoin]			17.4	350	
Cc1ccc2cc(S(=O)(=O)N3CC(=O)NC3=O)ccc2c1[N+](=O)[O-] [Compound 13, 1-(6-methyl-5-nitronaphthalen-2-yl-sulfonyl)hydantoin]	100			27	potency relative to reference compound A [3]: ten times or more potent; inhibitory activity against aldose reductase compared with reference compound B ([1]; in words): stronger inhibitory activities against aldose reductase
O=C1CN(S(=O)(=O)c2ccc3c(Cl)cccc3c2)C(=O)N1 [Compound 3, 1-(5-chloronaphthalen-2-ylsulfonyl)hydantoin]			19	190	
O=C1CN(S(=O)(=O)c2cc3c(Cl)cccc3s2)C(=O)N1 [Compound 40, 1-(4-chlorobenzo[b]thiophen-2-yl-sulfonyl)hydantoin]	170	no change was observed	11		
O=C1CN(S(=O)(=O)c2cc3ccc(Cl)cc3cc2Cl)C(=O)N1 [Compound 7, 1-(3,6-dichloronaphthalen-2-ylsulfonyl)hydantoin]		no change was observed	23.2	240	
O=C1CN(S(=O)(=O)c2oc3ccccc3c2Cl)C(=O)N1 [Compound 47, 1-(3-chlorobenzo[b]furan-2-ylsulfonyl)hydantoin]			44.7		lowering of serum total ketone body levels (in words) [4]: lowering activity of serum total ketone body levels; influence on serum glucose level of normal rats (in words) (Normal Rats): lesser influences on serum glucose level of normal rats; lowering of serum lipid levels (in words) [5]: lowering activities of serum triglyceride, non esterified fatty acid and cholesterol levels
O=C1CN(S(=O)(=O)c2ccc3ccccc3c2Cl)C(=O)N1 [Compound 1, 1-(1-chloronaphthalen-2-ylsulfonyl)hydantoin]			37.2	290	
O=C1CN(S(=O)(=O)c2cc(Cl)sc2Cl)C(=O)N1 [Compound 24, 1-(2,5-dichlorothiophen-3-ylsulfonyl)hydantoin]	290	no change was observed			potency compared with compound 13 and 15 ([1]; in words): as potent as compound 13 and 15
O=C1CN(S(=O)(=O)c2cc3ccccc3o2)C(=O)N1 [Compound 19, 1-(benzo[b]furan-2-ylsulfonyl)hydantoin]		no change was observed	52.1		
O=C1CN(S(=O)(=O)c2cc3cc(Br)ccc3o2)C(=O)N1 [Compound 21, 1-(5-bromobenzo[b]furan-2-ylsulfonyl)hydantoin]	300	no change was observed	22.3		
